As usually defined, the inhibition is how much of the control response was suppressed. In general, viability refers to a read-out of living cells in per cent, often relative to untreated cells.

For 13 compounds, inhibition and viability results are on record in paper PMC9502836, “Zika Virus Inhibitors Based on a 1,3-Disubstituted 1H-Pyrazolo[3,4-d]pyrimidine-amine Scaffold” (Molecules, 2022).

For data set [1], the system named is luciferase reporter ZIKV. The data set can be described thus: luciferase-based ZIKV reporter assay in Huh7 cells. In kind it is cell-based. As to conditions: Zika virus, Huh-7, 72 h, read-out: ZIKV Reporter Assay Inhibition (%) at 10 µM. How it is done: (§1) In the current study, we continued to use our previously reported luciferase-based ZIKV reporter assay as a primary antiviral screening, by which newly synthesized compounds were tested (at 10 µM) along with NITD008 (Figure 1, at 1 µM), a flavivirus RNA-dependent RNA polymerase (RdRp) inhibitor, and NSC 12155 (Figure 1, at 10 µM), a flavivirus NS5 methyltransferase (MTase) inhibitor, as reference compounds (Table 1). […] For active compounds (>60% titer-reduction), dose-response experiments were performed to determine EC50 (half maximal effective concentration, a concentration that is needed to cause half of the maximum possible pharmacological effect) and CC50 (half cytotoxic concentration, a concentration that is required to reduce cell viability by 50%) values. For selected compounds, EC50 values in the reporter assay were also measured.
The ZIKV reporter assay and titer-reduction assay were performed as previously reported. Briefly, Huh7 cells (1.5 × 10^4) were seeded in a 96-well plate and inoculated with a luciferase reporter ZIKV (MOI=0.2). After two hours, the cells were treated with medium containing the compound (10 µM). After 3 days post-infection, the cells were lysed, the Nanoluc signal was detected using the Nano-Glo® luciferase assay (Promega), then measured using a Neo 2 plate reader (BioTek, Winooski, VT, USA). For titer-reduction assays, 1.5 × 10^5 Huh7 cell were seeded in a 24-well plate. Next day, the cells were inoculated with ZIKV for two hours. The inoculum was replaced with compound-containing medium (8.5 µM) and incubated for 3 days. Supernatants were collected and viral titers were estimated by plaque assay.
(Reporter assays use an easily measured gene product as a stand-in for the process of interest.)

A short description of data set [2]: Cell viability (CC50) assay, MTS-based. As to conditions: human; 10 µM compound, Huh7 cells, 3 days; read-out: ZIKV Reporter Assay Viability (%) at 10 µM. The method, then:
as §1
The cell viability assay was performed in Huh7 cells as previously reported. Briefly, non-infected Huh7 cells were treated with the testing compounds for 3 days. Viability was measured by absorbance at […] using the MTS-based tetrazolium reduction CellTiter 96 Aqueous Non-Radioactive cell proliferation assay (Promega).

`Nc1ncnc2c1c(CNc1ccccc1)cn2Cc1ccc([N+](=O)[O-])cc1` [Compound 4, 7-(4-Nitrobenzyl)-5-((phenylamino)methyl)-7H-pyrrolo[2,3-d]pyrimidin-4-amine]: the inhibition at 10 µM in data set [1] is 91%. Besides, the viability at 3 days, 10 µM in data set [2] was determined as 40%.
For `Nc1ncnc2c1c(COc1ccccc1)nn2Cc1ccccc1` [Compound 7, 1-Benzyl-3-(phenoxymethyl)-1H-pyrazolo[3,4-d]pyrimidin-4-amine], the inhibition at 10 µM in data set [1] stood at 0%. For the same compound, in data set [2], the viability at 3 days, 10 µM was found to be 99%.
Regarding `Nc1ncnc2c1c(COc1ccccc1)nn2Cc1ccccc1[N+](=O)[O-]` [Compound 8, 1-(2-Nitrobenzyl)-3-(phenoxymethyl)-1H-pyrazolo[3,4-d]pyrimidin-4-amine], the inhibition at 10 µM in data set [1] came to 9%. Moreover, in data set [2], the viability at 3 days, 10 µM is 103%.
With `Nc1ncnc2c1c(COc1ccccc1)nn2Cc1cccc([N+](=O)[O-])c1` [Compound 9, 1-(3-Nitrobenzyl)-3-(phenoxymethyl)-1H-pyrazolo[3,4-d]pyrimidin-4-amine], the inhibition at 10 µM in data set [1] stood at 90%. Also, the viability at 3 days, 10 µM in data set [2] turned out to be 37%.
Regarding `Nc1ccccc1Cn1nc(COc2ccccc2)c2c(N)ncnc21` [Compound 10, 1-(2-Aminobenzyl)-3-(phenoxymethyl)-1H-pyrazolo[3,4-d]pyrimidin-4-amine], the inhibition at 10 µM in data set [1] came out at 0%. The viability at 3 days, 10 µM in data set [2] was found to be 99%.
For the compound `Nc1cccc(Cn2nc(COc3ccccc3)c3c(N)ncnc32)c1` [Compound 11, 1-(3-Aminobenzyl)-3-(phenoxymethyl)-1H-pyrazolo[3,4-d]pyrimidin-4-amine], the inhibition at 10 µM in data set [1] stood at 0%. Besides, the viability at 3 days, 10 µM in data set [2] is 89%.
As for `Nc1ccc(Cn2nc(COc3ccccc3)c3c(N)ncnc32)cc1` [Compound 12, 1-(4-Aminobenzyl)-3-(phenoxymethyl)-1H-pyrazolo[3,4-d]pyrimidin-4-pmine], the inhibition at 10 µM in data set [1] was determined as 0%. In data set [2], the viability at 3 days, 10 µM worked out at 95%.
For `N#Cc1ccc(Cn2nc(COc3ccccc3)c3c(N)ncnc32)cc1` [Compound 15, 4-((4-Amino-3-(phenoxymethyl)-1H-pyrazolo[3,4-d]pyrimidin-1-yl)methyl)benzonitrile], in data set [1], the inhibition at 10 µM was 37%. Also, the viability at 3 days, 10 µM in data set [2] was determined as 99%.
Consider `COC(=O)c1ccccc1Cn1nc(COc2ccccc2)c2c(N)ncnc21` [Compound 16, Methyl 2-((4-Amino-3-(phenoxymethyl)-1H-pyrazolo[3,4-d]pyrimidin-1-yl)methyl)benzoate], for which the inhibition at 10 µM in data set [1] was 0%. In addition, the viability at 3 days, 10 µM in data set [2] amounted to 95%.
Consider `COC(=O)c1cccc(Cn2nc(COc3ccccc3)c3c(N)ncnc32)c1` [Compound 17, Methyl 3-((4-Amino-3-(phenoxymethyl)-1H-pyrazolo[3,4-d]pyrimidin-1-yl)methyl)benzoate], for which, in data set [1], the inhibition at 10 µM was 88%. The viability at 3 days, 10 µM in data set [2] was determined as 38%.
In the same order, the values of `COC(=O)c1ccc(Cn2nc(COc3ccccc3)c3c(N)ncnc32)cc1` [Compound 18, Methyl 4-((4-amino-3-(phenoxymethyl)-1H-pyrazolo[3,4-d]pyrimidin-1-yl)methyl)benzoate] are 6% and 95%.
In the case of `Nc1ncnc2c1c(COc1ccccc1)nn2Cc1ccnc(Cl)c1` [Compound 20, 1-((2-Chloropyridin-4-yl)methyl)-3-(phenoxymethyl)-1H-pyrazolo[3,4-d]pyrimidin-4-amine], the inhibition at 10 µM in data set [1] stood at 88%. Besides, the viability at 3 days, 10 µM in data set [2] came to 39%.
For `Nc1cc(Cn2nc(COc3ccccc3)c3c(N)ncnc32)ccn1` [Compound 22, 1-((2-Aminopyridin-4-yl)methyl)-3-(phenoxymethyl)-1H-pyrazolo[3,4-d]pyrimidin-4-amine], the inhibition at 10 µM in data set [1] stood at 67%. For the same compound, the viability at 3 days, 10 µM in data set [2] amounted to 36%.
